Data set [1] deals with mBMDCs. Briefly: Intracellular Ca2+ influx (Fura-2/Fura-8) in mBMDCs. Format: cell-based, mouse. To be noted: 10 μM, vs Veh 0.5% DMSO / #634.
The test system of data set [2] is TLR4. Briefly: TLR4 agonism in murine and human HEK-TLR4 reporter cells. Format: cell-based. From the text: FIG. 37. TLR4 agonism assays with analogs of 2B182c in human and murine TLR4 reporter cells.
Data set [3] has as its system CD63-Tluc-CD9-EmGFP THP-1 reporter cells. Briefly: CD63 Tluc-CD9 EmGFP THP-1 reporter cell assay (EV/exosome release). Format: cell-based, human. To be noted: 634 analogs 10 μM, 48 hours. As to the method: All these analogs were evaluated for induction of IL-12 cytokine at 10 μM, followed by dose response IL-12 induction for selected analogs. These analogs were also evaluated for exosome release by quantitating EV release in the supernatant post 48 hours incubation with CD63-Tluc-CD9-EmGFP THP-1 reporter cells.
In the HTS using CD63-Tluc-CD9EmGFP reporter cells (CD63 HTS), PMA (10 ng/ml) was used as a positive control (Shpigelman et al., 2021) and 0.5% DMSO was used as negative control (vehicle, Veh). Briefly, the harvested cells were resuspended in assay media containing 10% exosome-depleted […] (#A2720801, Thermo Fisher Scientific) and plated at 2×10^5 cells/mL (50 μL/well of 384-well plates) (#3674, Corning). Test compounds were added at a final concentration of 10 μM to cells and incubated for 48 hours at 37° C. Subsequently, the plate was centrifuged, supernatant (25 μL) was transferred, and chemiluminescent was measured as recombinant luciferase activity (RLU) after 10 minutes incubation with TurboLuc assay reagent (TurboLuc™ One-Step Glow Assay kit, Thermo Fisher Scientific). The response that measures activation and subsequent release of EVs was calculated using the following formula; % response=100×(compound RLU−average Veh RLU)/(average PMA RLU−average Veh RLU). The viability of cells was assessed using PrestoBlue reagent (Thermo Fisher Scientific). Briefly, PrestoBlue reagent (2.5 μl) was added to the remaining cells and incubated for 30 minutes at room temperature, followed by fluorescence readout at (Ex 560 nm/Em 590 nm) which was normalized to fluorescence data of the Veh wells within the plate to obtain “% viability” calculated as 100×(compound fluorescence/average Veh fluorescence).
CD63 Tluc-CD9 EmGFP THP-1 reporter cell assay. CD63 Tluc CD9 EmGFP THP-1 reporter cell (designated as CD63 Tluc reporter cells) were incubated with 10 μM test compounds, ION (1 μM), or 0.5% DMSO (negative control) in the RPMI 1640 supplemented with exosome-depleted FBS at 5×10^4 cells in 200 μL/well for a 96-well plate for 48 hours at 37° C. Subsequently, the plate was centrifuged, the supernatant was transferred, and chemiluminescence was measured by TurboLuc™ Luciferase One-Step Glow Assay Kit. The response that measures activation and subsequent release of EVs was calculated using the following formula; % response=100×(compound RLU−average Veh RLU)/(average PMA RLU−average Veh RLU).

Data set [4] relates to mBMDCs. Briefly: Cell viability / cytotoxicity in mBMDCs (MTT). Format: cell-based, mouse. Conditions: for toxicity in exosome-depleted FBS medium: mBMDCs, 10 μM, 48 hours, MTT; for cytotoxicity of Ca influx inhibitors / chelators in mBMDC culture: 48 hours culture. The procedure: FIGS. 30A-30B. […] After 48 hours incubation, cell viability was determined by MTT assay.
mBMDCs (10^5 cells/200 μL/well) were treated with 10 and 5 μM of a test compound in 96-well plates overnight. After 18 hours of drug treatment, MTT (0.5 mg/ml) was added to each well. The cells were lysed after 6-8 hours incubation, and absorbance values at 570 and 650 nm were measured. PrestoBlue reagent (#A13261, Thermo Fisher Scientific) was used for cell viability assay in CD63 HTS as described earlier.
Cell viability assay. mBMDCs (2×10^6 cells/200 μL/well in RPMI1640 supplemented with dialyzed 10% FBS, or 1.5×10^6 cells/200 μL/well in RPMI1640 supplemented with 10% exosome depleted FBS) were treated with 10 μM of each test compound in 96-well plates. After 46-48 hours of compound treatment, MTT (0.5 mg/mL) was added to each well. The cells were lysed after overnight incubation, and absorbance values at 570 and 650 nm were measured.

Data set [5] relates to mBMDCs. Briefly: EV release from mBMDCs (differential ultracentrifugation, MRPS). To be noted: 10 μM, 46-48 h, vs Veh.

Entries after “also recorded” stand apart in the source; their conditions may differ.

Data on 25 compounds can be found in US20250281465A1, “MOLECULES THAT ENHANCE EXTRACELLULAR VESICLE RELEASE” (priority 2022, published 2025).

For the compound `Cc1sc(NS(=O)(=O)c2cccc3c2N=S=N3)c(C(=O)OC(C)C)c1C` [2G179c, Isopropyl 2-(benzo[c][1,2,5]thiadiazole-4-sulfonamido)-4,5-dimethylthiophene-3-carboxylate], in data set [1], the “intracellular Ca^2+ influx by 634 and its SAR analogs (Fura-2)” value was “increased intracellular Ca^2+ levels more than that of #634; also recorded: Ca^2+ influx positive”. Consider `Cn1c2ccc(-c3ccco3)cc2c2nc(SCC(=O)NC3CCCCC3)n(-c3ccc(O)c(O)c3)c(=O)c21` [2E255], for which the TLR4 agonistic activity result in data set [2] is “completely inactive”. Take `CCOC(=O)c1c(N(C)S(=O)(=O)c2cccc3c2N=S=N3)sc(C)c1C` [2F186, Ethyl 4,5-dimethyl-2-(N-methylbenzo[c][1,2,5]thiadiazole-4-sulfonamido)thiophene-3-carboxylate]: the “intracellular Ca^2+ influx by 634 and its SAR analogs (Fura-2)” value in data set [1] is given as “did not induce Ca^2+ influx in mBMDCs; also recorded: negative”. Besides, the “luciferase activities in the culture supernatant of CD63 Tluc reporter cells” value in data set [3] is on record as “did neither increase luciferase activities”.

In the case of `Cn1c2ccc(-c3ccco3)cc2c2nc(SCC(=O)NC3CCCCC3)n(-c3cccc(OCOP(=O)(O)O)c3)c(=O)c21` [2G202], the TLR4 agonistic activity entry in data set [2] is reported as “weakly active”. Consider `Cc1cc(NS(=O)(=O)c2cccc3nsnc23)sc1C` [2G182], for which, in data set [1], the “intracellular Ca^2+ influx by 634 and its SAR analogs (Fura-2)” value is recorded as “loss of potency”. For `Cn1c2ccc(-c3ccco3)cc2c2nc(SCC(=O)NC3CCCCC3)n(-c3cccc(O)c3)c(=O)c21` [2G053], the TLR4 agonistic activity entry in data set [2] was “equipotent to compound 28182c”. Turning to `CCCCCCCC/C=C\CCCCCCCC(=O)OC[C@H](COP(=O)(O)OCCNC(=O)CCCC(=O)Oc1cccc(-n2c(SCC(=O)NC3CCCCC3)nc3c4cc(-c5ccco5)ccc4n(C)c3c2=O)c1)OC(=O)CCCCC/C=C\CCCCCCCC` [2G177], the TLR4 agonistic activity result in data set [2] is “slightly less potent than 2G053; also recorded: the potency at the highest concentration was better”. As to `Cc1sc(NS(=O)(=O)c2cccc3nsnc23)c(C(=O)OC2CCCCC2)c1C` [2G179e, Cyclohexyl 2-(benzo[c][1,2,5]thiadiazole-4-sulfonamido)-4,5-dimethylthiophene-3-carboxylate], the “toxicity in exosome-depleted FBS medium” value in data set [4] is “higher toxicity”. Regarding `CCCCCCCCC(=O)Nc1cccc(-n2c(SCC(=O)NC3CCCCC3)nc3c4cc(-c5ccco5)ccc4n(C)c3c2=O)c1` [2G113], the TLR4 agonistic activity entry in data set [2] is “did not retain equal potency”. For `CCCOC(=O)c1c(NS(=O)(=O)c2cccc3c2N=S=N3)sc(C)c1C` [2G176, Propyl 2-(benzo[c][1,2,5]thiadiazole-4-sulfonamido)-4,5-dimethylthiophene-3-carboxylate], the “intracellular Ca^2+ influx by 634 and its SAR analogs (Fura-2)” value in data set [1] is recorded as “Ca^2+ influx positive”. For `Cc1sc(NS(=O)(=O)c2cccc3nsnc23)c(C(=O)O)c1C` [2H013, 2-(benzo[c][1,2,5]thiadiazole-4-sulfonamido)-4,5-dimethylthiophene-3-carboxylic acid], the “intracellular Ca^2+ influx by 634 and its SAR analogs (Fura-2)” value in data set [1] was “did not induce Ca^2+ influx in mBMDCs; also recorded: negative”. Besides, the “luciferase activities in the culture supernatant of CD63 Tluc reporter cells” value in data set [3] is reported as “did neither increase luciferase activities”. For `CCNC(=O)c1c(NS(=O)(=O)c2cccc3c2N=S=N3)sc(C)c1C` [2E241, 2-(benzo[c][1,2,5]thiadiazole-4-sulfonamido)-N-ethyl-4,5-dimethylthiophene-3-carboxamide], in that order: “loss of potency; also recorded: did not induce Ca^2+ influx in mBMDCs; also recorded: negative” and “did neither increase luciferase activities”. Take `Cc1nnsc1C(=O)Nc1ccc(-n2nc(C(F)(F)F)cc2C(F)(F)F)cc1` [BTP2, reference compound]: the “cytotoxicity of Ca influx inhibitors / chelators in mBMDC culture” value in data set [4] is on record as “cytotoxic”. Also, the “number of EV particles released in the culture supernatant” value (“number of EV particles released” for short) in data set [5] is listed as “increased EV release by mBMDC”. Turning to `Cc1sc(NS(=O)(=O)c2cccc3nsnc23)c(C(=O)Oc2ccccc2)c1C` [2G179g, Phenyl 2-(benzo[c][1,2,5]thiadiazole-4-sulfonamido)-4,5-dimethylthiophene-3-carboxylate], in data set [1], the “intracellular Ca^2+ influx by 634 and its SAR analogs (Fura-2)” value was “lost potency; also recorded: Ca^2+ influx positive”. As to `CC(=O)OCOC(=O)CN(CC(=O)OCOC(C)=O)c1ccccc1OCCOc1ccccc1N(CC(=O)OCOC(C)=O)CC(=O)OCOC(C)=O` [BAPTA-AM, reference compound], the “cytotoxicity of Ca influx inhibitors / chelators in mBMDC culture” value in data set [4] was “cytotoxic; also recorded: toxic”. Besides, in data set [5], the “number of EV particles released” value was “increased EV release by mBMDC; also recorded: enhanced particle release from dead and dying cells”. For the compound `Cn1c2ccc(-c3ccco3)cc2c2nc(SCC(=O)NC3CCCCC3)n(-c3cccc(N)c3)c(=O)c21` [2G023a], in data set [2], the TLR4 agonistic activity entry is reported as “equipotent to compound 28182c”.

In the case of `CCCCCCCCC(=O)Oc1cccc(-n2c(SCC(=O)NC3CCCCC3)nc3c4cc(-c5ccco5)ccc4n(C)c3c2=O)c1` [2G108], the TLR4 agonistic activity result in data set [2] is given as “potent”. Consider `CC(=O)Nc1cccc(-n2c(SCC(=O)NC3CCCCC3)nc3c4cc(-c5ccco5)ccc4n(C)c3c2=O)c1` [2G112], for which the TLR4 agonistic activity result in data set [2] is given as “did not retain equal potency”. As to `O=C(O)CN(CCOCCOCCN(CC(=O)O)CC(=O)O)CC(=O)O` [EGTA, reference compound], the “cytotoxicity of Ca influx inhibitors / chelators in mBMDC culture” value in data set [4] is on record as “cytotoxic; also recorded: toxic”. In addition, the “number of EV particles released” value in data set [5] was “increased EV release by mBMDC; also recorded: enhanced particle release from dead and dying cells”. For `Cc1sc(NS(=O)(=O)c2cccc3nsnc23)c(C(=O)OCCC(C)C)c1C` [2G179d, Isopentyl 2-(benzo[c][1,2,5]thiadiazole-4-sulfonamido)-4,5-dimethylthiophene-3-carboxylate], in data set [1], the “intracellular Ca^2+ influx by 634 and its SAR analogs (Fura-2)” value is “increased intracellular Ca^2+ levels more than that of #634”. For the same compound, in data set [4], the “toxicity in exosome-depleted FBS medium” value was “higher toxicity”. Take `Cc1sc(NS(=O)(=O)c2cccc3nsnc23)c(C(=O)OC(C)(C)C)c1C` [2G179 h, Tert-butyl 2-(benzo[c][1,2,5]thiadiazole-4-sulfonamido)-4,5-dimethylthiophene-3-carboxylate]: in data set [4], the “toxicity in exosome-depleted FBS medium” value is “higher toxicity”. Turning to `Cc1sc(NS(=O)(=O)c2cccc3nsnc23)c(C(=O)OCc2ccccc2)c1C` [2G179f, Benzyl 2-(benzo[c][1,2,5]thiadiazole-4-sulfonamido)-4,5-dimethylthiophene-3-carboxylate], the “toxicity in exosome-depleted FBS medium” value in data set [4] was “higher toxicity”. Consider `CCCCCCOC(=O)c1c(NS(=O)(=O)c2cccc3nsnc23)sc(C)c1C` [2G179b, Hexyl 2-(benzo[c][1,2,5]thiadiazole-4-sulfonamido)-4,5-dimethylthiophene-3-carboxylate], for which the “intracellular Ca^2+ influx by 634 and its SAR analogs (Fura-2)” value in data set [1] is on record as “increased intracellular Ca^2+ levels more than that of #634”. The “toxicity in exosome-depleted FBS medium” value in data set [4] was “higher toxicity”.

For the compound `CC(=O)Oc1cccc(-n2c(SCC(=O)NC3CCCCC3)nc3c4cc(-c5ccco5)ccc4n(C)c3c2=O)c1` [2G107], in data set [2], the TLR4 agonistic activity entry is on record as “potent”. Take `COC(=O)c1c(NS(=O)(=O)c2cccc3c2N=S=N3)sc(C)c1C` [2G179a, Methyl 2-(benzo[c][1,2,5]thiadiazole-4-sulfonamido)-4,5-dimethylthiophene-3-carboxylate]: the “intracellular Ca^2+ influx by 634 and its SAR analogs (Fura-2)” value in data set [1] is listed as “Ca^2+ influx positive”.
